Like-named read-outs stand apart in the source and are kept apart here.

The test system of this assay is SP2 luciferase (Luciola sp2 firefly luciferase), wild type, SEQ ID NO: 1. As to the kind of experiment: Km of SP2 luciferase for D-luciferin and ATP (luminescence kinetics, Michaelis-Menten fit). Type of assay: biochemical, Luciola sp2 (Malaysian firefly). Particulars: for Km: 0.1 M Tris-HCl pH 8.0, MgSO4 8 mM in injected solution.

Description: The measurements were carried out ten times for each sample, and the average of absorbency was used for the calculation.
A solution of 0.1 M Tris-HCl (pH 8.0) containing each of the purified luciferase, 4 mM of ATP, and 8 mM of MgSO4 was connected to the standard pump of the luminometer, and the measurements was carried out at the same time as addition of 50 μl of the solution to the well. A Luminescensor (ATTO) was used for the measurements. Measurements were repeated 3 times for each luciferin concentration.
The peak intensity of the obtained photo count value was plotted with respect to luciferin concentration S, defining the initial rate as V. The plots were subjected to curve fitting of Michaelis Menten type, thereby giving Km values. The curve fitting was performed by a nonlinear least-squares method, and the search of the parameter was performed by a Newton method.
Under various ATP concentrations, the luminous intensity of the obtained luciferase was measured. Based on the results, Km values with respect to ATP was determined.
Various 12 types of ATP solutions were prepared by adding ATP to 0.1 M Tris-HCl (pH 8.0). These solutions contain ATP at final concentration of 5, 10, 20, 40, 80, 160, 320, 480, 640, 800, 1280, 1600, or 1920 μM. These ATP solutions were each injected into 96-hole in a microplate at a volume of 50 μl. […] Measurement was repeated 3 times for each ATP concentration.
The peak intensities of the obtained photon count value were plotted with respect to ATP concentration S, with an initial rate V. The plots were subjected to curve fitting of Michaelis Menten type, thereby giving Km value. The curve fitting was performed by a nonlinear least-squares method, and the search of the parameter was performed by a Newton method.

`Nc1ncnc2c1ncn2[C@@H]1O[C@H](COP(=O)(O)OP(=O)(O)OP(=O)(O)O)[C@@H](O)[C@H]1O` [ATP]: where the note is “D-luciferin 1 mM, read-out: Km ATP”, the Km came to 188 µM. In addition, the “Km with respect to ATP, compared with known luciferase (FIG. 2)” value (comparison in words) is listed as “higher Km values”.

Turning to `O=C(O)[C@H]1CSC(c2nc3ccc(O)cc3s2)=N1` [D-luciferin], the “Km with respect to D-luciferin, compared with known luciferase (FIG. 2)” value (comparison in words) is recorded as “higher Km values”. Also, the Km (read-out: Km D-luciferin, ATP 4 mM) was 4.25 µM.

These data come from patent publication US9523082B2, “Firefly luciferase” (priority 2014, dated 2016).
